Data: ChEMBL document CHEMBL5032530, “Discovery of Benzocyclic Sulfone Derivatives as Potent CXCR2 Antagonists for Cancer Immunotherapy” (J Med Chem, 2021)
Each block holds one molecule with its values, some of them ahead of it. The source made the active and inactive calls. The rule behind the calls is not given here.

Key:
[1] = target: T1, C-X-C chemokine receptor type 2 (Homo sapiens, UniProt P25025); test: Antagonist activity at human CXCR2 expressed in HEK293 cells assessed as inhibition of CXCL8-induced beta-arrestin recruitment preincubated for 30 mins followed by addition of agonist incubated for 90 mins by beta arrestin assay; type: functional, cell-based
T1 sequence (P25025 whole entry): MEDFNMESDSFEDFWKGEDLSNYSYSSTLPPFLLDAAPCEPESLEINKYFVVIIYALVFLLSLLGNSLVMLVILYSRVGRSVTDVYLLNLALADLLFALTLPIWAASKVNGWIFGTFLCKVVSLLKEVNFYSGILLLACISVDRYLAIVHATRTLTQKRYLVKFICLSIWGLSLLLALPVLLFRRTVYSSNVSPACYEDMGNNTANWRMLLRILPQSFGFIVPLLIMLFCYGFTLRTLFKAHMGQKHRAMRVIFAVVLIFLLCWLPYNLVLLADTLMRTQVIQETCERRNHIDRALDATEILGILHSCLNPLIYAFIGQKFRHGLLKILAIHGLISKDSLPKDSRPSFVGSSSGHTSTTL

[2] = Clearance in ICR mouse at 3 mg/kg, iv measured upto 48 hrs; type: ADME, organism-based; conditions: in vivo
[3] = AUC (0 to t) in ICR mouse at 30 mg/kg, po measured upto 48 hrs; type: ADME, organism-based; parameters: route oral, dose 30 mg/kg, time <=48; conditions: in vivo
[4] = Cytotoxicity against human PBMC cells assessed as reduction in cell viability measured after 72 hrs by CCK8 assay; type: cell-based
[5] = Apparent volume of distribution in ICR mouse at 3 mg/kg, iv measured upto 48 hrs; type: ADME, organism-based; conditions: in vivo, read-out: Vz
Panc02 [6] = test: Antitumour activity against mouse Panc02 cells xenografted in mouse assessed as tumour growth inhibition at 3 mg/kg, po bid […]; type: functional; conditions: read-out: TGI
SW1990 = test: Cytotoxicity against human SW1990 cells assessed as reduction in cell viability measured after 72 hrs by CCK8 assay; type: cell-based; conditions: SW1990, 72 h
[7] = Tmax in ICR mouse at 30 mg/kg, po measured upto 48 hrs; type: ADME, organism-based; conditions: in vivo
[8] = Apparent volume of distribution in ICR mouse at 30 mg/kg, po measured upto 48 hrs; type: ADME, organism-based; conditions: in vivo
Panc02 [9] = test: Antitumour activity against mouse Panc02 cells xenografted in mouse assessed as upregulation of infiltration of CD3+ T cell into tumor tissue treated po twice a day measured after 15 days by immunohistochemical analysis; type: functional, organism-based; conditions: dose 10-30 mg/kg, time 15.0 day
Panc02 [10] = test: Antitumour activity against mouse Panc02 cells xenografted in mouse assessed as change in Gr1 expressing immune cells infiltration into tumor tissue at 10 mg/kg, po bid measured after 15 days by flow cytometry analysis (reference value: 27.4%); type: functional; conditions: time 15 day
[11] = AUC (0 to infinity) in ICR mouse at 30 mg/kg, po measured upto 48 hrs; type: ADME, organism-based; parameters: route oral, dose 30 mg/kg, time <=48; conditions: ICR, in vivo
Panc02 [12] = test: Antitumour activity against mouse Panc02 cells xenografted in mouse assessed as change in CD11b expressing immune cells infiltration into tumor tissue using LY6C antibody at 3 mg/kg, po bid measured after 15 days by flow cytometry analysis (reference value: 20.5%); type: functional; conditions: time 15 day
MIA PaCa-2 = test: Cytotoxicity against human MIA PaCa-2 cells assessed as reduction in cell viability measured after 72 hrs by CCK8 assay; type: cell-based; conditions: MIA PaCa-2, 72 h
Panc02 [13] = test: Antitumour activity against mouse Panc02 cells xenografted in mouse assessed as reduction in infiltration of granulocytic MDSCs into tumor tissue at 3 mg/kg, po bid measured after 15 days by flow cytometry analysis; type: functional, organism-based; conditions: time 15.0 day
[14] = Cmax in ICR mouse at 3 mg/kg, iv measured upto 48 hrs; type: ADME, organism-based; parameters: route intravenous, dose 3 mg/kg, time <=48; conditions: in vivo
[15] = Half life in ICR mouse at 30 mg/kg, po measured upto 48 hrs; type: ADME, organism-based; conditions: ICR, in vivo
[16] = Clearance in ICR mouse at 30 mg/kg, po measured upto 48 hrs; type: ADME, organism-based; conditions: ICR, in vivo
PANC-1 = test: Cytotoxicity against human PanC-1 cells assessed as reduction in cell viability measured after 72 hrs by CCK8 assay; type: cell-based; conditions: PANC-1, 72 h
[17] = Half life in ICR mouse at 3 mg/kg, iv measured upto 48 hrs; type: ADME, organism-based; conditions: in vivo
Panc02 [18] = test: Antitumour activity against mouse Panc02 cells xenografted in mouse assessed as change in CD11b expressing immune cells infiltration into tumor tissue using LY6C antibody at 10 mg/kg, po bid measured after 15 days by flow cytometry analysis (reference value: 20.5%); type: functional; conditions: time 15 day
BXPC-3 = test: Cytotoxicity against human BxPC3 cells assessed as reduction in cell viability measured after 72 hrs by CCK8 assay; type: cell-based; conditions: BXPC-3, 72 h
[19] = AUC (0 to infinity) in ICR mouse at 3 mg/kg, iv measured upto 48 hrs; type: ADME, organism-based; parameters: route intravenous, dose 3 mg/kg, time <=48; conditions: in vivo
[20] = Tmax in ICR mouse at 3 mg/kg, iv measured upto 48 hrs; type: ADME, organism-based; conditions: in vivo
Panc02 [21] = test: Antitumour activity against mouse Panc02 cells xenografted in mouse assessed as tumour growth inhibition at 10 mg/kg, po bid […]; type: functional; conditions: read-out: TGI
[22] = target: T1, C-X-C chemokine receptor type 2; test: Displacement of [I-125]-interleukin-8 against human recombinant CXCR2 expressed in CHO-K1 cells incubated for 60 mins by radio ligand binding assay; type: cell-based
Panc02 [23] = test: Antitumour activity against mouse Panc02 cells xenografted in mouse assessed as change in CD11b expressing immune cells infiltration into tumor tissue using LY6G antibody at 3 mg/kg, po bid measured after 15 days by flow cytometry analysis (reference value: 29.7%); type: functional; conditions: time 15 day
Mus musculus = test: Effect on granulocytic MDSCs level in mouse xenografted with […] cells at 10 to 30 mg/kg, po bid measured after 15 days by immunohistochemical analysis; type: ADME, organism-based; conditions: in vivo, 360 h, dose 10-30 mg/kg, time 15 day
[24] = Cmax in ICR mouse at 30 mg/kg, po measured upto 48 hrs; type: ADME, organism-based; parameters: route oral, dose 30 mg/kg, time <=48; conditions: in vivo
Neutrophil = test: In vivo antagonist activity at CXCR2 in carrageenan-induced C57BL/6 mouse air pouch inflammation model assessed as reduction in neutrophil infiltration into air pouch at 30 mg/kg, po bid administered after 3 days of carrageenan treatment for 3 days; type: functional, organism-based; conditions: time 3.0 day
Panc02 [25] = test: Antitumour activity against mouse Panc02 cells xenografted in mouse assessed as change in CD45 expressing immune cells infiltration into tumor tissue at 3 mg/kg, po bid measured after 15 days by flow cytometry analysis (reference value: 27.4%); type: functional; conditions: time 15 day
[26] = AUC (0 to t) in ICR mouse at 3 mg/kg, iv measured upto 48 hrs; type: ADME, organism-based; parameters: route intravenous, dose 3 mg/kg, time <=48; conditions: in vivo
[27] = Oral bioavailability in ICR mouse at 30 mg/kg measured upto 48 hrs; type: ADME, organism-based; conditions: in vivo
Panc02 [28] = test: Antitumour activity against mouse Panc02 cells xenografted in mouse assessed as reduction in infiltration of neutrophils into tumor tissue at 3 mg/kg, po bid measured after 15 days by flow cytometry analysis; type: functional, organism-based; conditions: time 15.0 day
Panc02 [29] = test: Antitumour activity against mouse Panc02 cells xenografted in mouse assessed as change in CD45 expressing immune cells infiltration into tumor tissue at 10 mg/kg, po bid measured after 15 days by flow cytometry analysis (reference value: 2.3%); type: functional; conditions: time 15 day
Panc02 [30] = test: Cytotoxicity against mouse Panc02 cells assessed as reduction in cell viability measured after 72 hrs by CCK8 assay; type: cell-based; conditions: panc02, 72 h
Panc02 [31] = test: Antitumour activity against mouse Panc02 cells xenografted in mouse assessed as change in CD45 expressing immune cells infiltration into tumor tissue at 3 mg/kg, po bid measured after 15 days by flow cytometry analysis (reference value: 2.3%); type: functional; conditions: time 15 day
Panc02 [32] = test: Antitumour activity against mouse Panc02 cells xenografted in mouse assessed as reduction in infiltration of granulocytic MDSCs into tumor tissue at 30 mg/kg, po bid measured after 15 days by immunohistochemical analysis; type: functional, organism-based; conditions: time 15.0 day
Panc02 [33] = test: Antitumour activity against mouse Panc02 cells xenografted in mouse assessed as change in CD11b expressing immune cells infiltration into tumor tissue using LY6G antibody at 10 mg/kg, po bid measured after 15 days by flow cytometry analysis (reference value: 29.7%); type: functional; conditions: time 15 day
Panc02 [34] = test: Antitumour activity against mouse Panc02 cells xenografted in mouse assessed as reduction in infiltration of neutrophils into tumor tissue at 30 mg/kg, po bid measured after 15 days by immunohistochemical analysis; type: functional, organism-based; conditions: time 15.0 day

Structure (SMILES): O=c1c(Nc2ccccc2Cl)c(Nc2ccc3c(c2O)S(=O)(=O)CC=C3)c1=O
- IC50 [1]: 200 nM

Structure (SMILES): Cc1c(F)cccc1Nc1c(Nc2ccc3c(c2O)S(=O)(=O)CCC3)c(=O)c1=O
- IC50 [1]: 1360 nM

Structure (SMILES): O=c1c(Nc2ccccc2Br)c(Nc2ccc3c(c2O)S(=O)(=O)CC=C3)c1=O
- IC50 [1]: 78 nM

Structure (SMILES): O=C(Nc1ccc(Br)cc1)Nc1ccc2c(c1O)S(=O)(=O)CC=C2
- IC50 [1]: 1480 nM

Structure (SMILES): O=c1c(Nc2ccc3c(c2O)S(=O)(=O)CC=C3)c(Nc2cccc(F)c2Cl)c1=O
- IC50 [1]: 700 nM

Structure (SMILES): O=C(Nc1ccc(Br)cc1)Nc1ccc2c(c1O)S(=O)(=O)CCC2
- IC50 [1]: > 10000 nM

Structure (SMILES): O=c1c(Nc2ccccc2Cl)c(Nc2ccc3c(c2O)S(=O)(=O)CCC3)c1=O
- IC50 [1]: 1050 nM

Structure (SMILES): O=C(Nc1ccc(Cl)cc1Cl)Nc1ccc2c(c1O)S(=O)(=O)CC=C2
- IC50 [1]: 5920 nM

Structure (SMILES): Cc1c(F)cccc1NC(=O)Nc1ccc2c(c1O)S(=O)(=O)CC=C2
- clearance [2]: 32.8 mL/min/kg
- AUC(0-t) at 48 h [3]: 3510 ng·h/mL
- IC50 [4]: > 10000 nM
- Vd [5]: 9.82 L/kg
- inhibition in vivo at 3 mg/kg (Panc02 [6]): 58.2%
- IC50 (SW1990): > 10000 nM
- Tmax [7]: 3.42 h
- IC50 [1]: 34 nM
- Vz [8]: 47.39 L/kg
- Activity (Panc02 [9]): Dose-Dependent Effect
- Activity (Panc02 [10]): 7.6%
- AUC(0-inf) [11]: 3570 ng·h/mL
- Activity (Panc02 [12]): 15%
- IC50 (MIA PaCa-2): > 10000 nM
- Activity (Panc02 [13]): Active
- Cmax [14]: 5120 ng/mL
- half-life [15]: 3.83 h
- CL/F [16]: 143 mL/min/kg
- IC50 (PANC-1): > 10000 nM
- half-life [17]: 3.39 h
- Activity (Panc02 [18]): 17.8%
- IC50 (BXPC-3): > 10000 nM
- AUC(0-inf) [19]: 1550 ng·h/mL
- Tmax [20]: 3 min
- inhibition in vivo at 10 mg/kg (Panc02 [21]): 66.7%
- Ki [22]: 440 nM
- Activity (Panc02 [23]): 15.8%
- Activity (Mus musculus): Non-Toxic
- Cmax [24]: 419 ng/mL
- Activity (Neutrophil): Active
- Activity (Panc02 [25]): 12.7%
- AUC(0-t) at 48 h [26]: 1510 ng·h/mL
- bioavailability [27]: 23.2%
- Activity (Panc02 [28]): Active
- Activity (Panc02 [29]): 40.2%
- Activity (Panc02 [30]): Non-Toxic
- Activity (Panc02 [31]): 34.9%
- Activity (Panc02 [32]): Active
- Activity (Panc02 [33]): 8.11%
- Activity (Panc02 [34]): Active

Structure (SMILES): O=C(Nc1ccccc1F)Nc1ccc2c(c1O)S(=O)(=O)CC=C2
- IC50 [1]: 320 nM

Results, then the molecule that gave them:

- IC50 [1]: 1600 nM
Structure (SMILES): O=C(Nc1ccccc1C(F)(F)F)Nc1ccc2c(c1O)S(=O)(=O)CC=C2

- IC50 [1]: 140 nM
Structure (SMILES): O=C(Nc1ccccc1Br)Nc1ccc2c(c1O)S(=O)(=O)CCC2

- IC50 [1]: 1020 nM
Structure (SMILES): O=C(Nc1ccccc1F)Nc1ccc2c(c1O)S(=O)(=O)CCC2

- IC50 [1]: 43 nM
Structure (SMILES): O=C(Nc1ccc2c(c1O)S(=O)(=O)CCC2)Nc1cccc(F)c1Cl

- IC50 [1]: 210 nM
Structure (SMILES): O=C(Nc1ccc2c(c1O)S(=O)(=O)CCC2)Nc1cccc(Cl)c1Cl

- IC50 [1]: 4510 nM
Structure (SMILES): O=C(Nc1ccccc1C(F)(F)F)Nc1ccc2c(c1O)S(=O)(=O)CCC2

- IC50 [1]: > 10000 nM
Structure (SMILES): O=C(Nc1ccc(Cl)cc1Cl)Nc1ccc2c(c1O)S(=O)(=O)CCC2
